In US10351575B2, “Bicyclic urea, thiourea, guanidine and cyanoguanidine compounds useful for the treatment of pain” (Array BioPharma Inc., priority 2012, dated 2019):

Each molecule was assayed against His-tagged recombinant human TrkA (Homo sapiens (Human), UniProt P04629) (assay: TrkA LanthaScreen Eu Kinase Binding Assay). Conditions: averaged IC50; TR-FRET binding, 60 min, 22° C.; read-out: TrkA Enzyme IC50.
Method: TrkA binding activity was determined in a TrkA LanthaScreen™ Eu Kinase Binding Assay. 5 nM His-tagged recombinant human TrkA (6HIS tagged cytoplasmic domain from Invitrogen, Catalog No. PV3144) was incubated with 4 nM Alexa-Fluor® Tracer 236 (Invitrogen Cat. No. PV5592), 2 nM biotinylated anti-His (Invitrogen Cat. No. PV6090), and 2 nM europium-labeled Streptavidin (Invitrogen Cat. No. PV5899), in buffer (25 mM MOPS, pH 7.5, 5 mM MgCl2, 0.005% Triton X-100). Three fold serial dilutions of compounds of the invention in DMSO were added to a final percentage of 2% DMSO. After 60-minute incubation at 22° C., the reaction was measured using the EnVision mutlimode plate reader (PerkinElmer) via TR-FRET dual wavelength detection at […]. The percent of control was calculated using a ratiometric emission factor. The IC50 values were determined by fitting a four parameter model to the percent of control data.

Chain of His-tagged recombinant human TrkA (P04629 440-796): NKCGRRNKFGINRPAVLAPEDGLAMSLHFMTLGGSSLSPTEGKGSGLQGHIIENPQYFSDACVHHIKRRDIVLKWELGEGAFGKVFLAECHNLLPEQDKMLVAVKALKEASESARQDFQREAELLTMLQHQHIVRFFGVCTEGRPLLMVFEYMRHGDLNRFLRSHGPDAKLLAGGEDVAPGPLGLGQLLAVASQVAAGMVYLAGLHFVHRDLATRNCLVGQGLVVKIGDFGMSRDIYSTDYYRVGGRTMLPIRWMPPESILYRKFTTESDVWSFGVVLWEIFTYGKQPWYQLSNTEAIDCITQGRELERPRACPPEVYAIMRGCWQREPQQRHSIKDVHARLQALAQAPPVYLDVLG

Q: `Cc1c(-c2cnn(C)c2)nn(-c2ccccc2)c1NC(=O)N[C@@H]1c2ccccc2C(C)(C)C[C@H]1O` (relative stereo) [Example 105, 1-(1′,4-dimethyl-1-phenyl-1H,1′H-[3,4′-bipyrazol]-5-yl)-3-(trans-2-hydroxy-4,4-dimethyl-1,2,3,4-tetrahydronaphthalen-1-yl)urea] was tested. Which IC50 did it give?
A: < 100 nM

Q: For `Cc1ncc(-c2nn(-c3ccccc3)c(NC(=O)N[C@@H]3c4ccccc4C(C)(C)[C@H]3O)c2C)cn1` [Example 73, 1-((1,2-trans)-2-hydroxy-3,3-dimethyl-2,3-dihydro-1H-inden-1-yl)-3-(4-methyl-3-(2-methylpyrimidin-5-yl)-1-phenyl-1H-pyrazol-5-yl)urea], which IC50 is on record?
A: < 100 nM

Q: `Cc1c(NC(=O)NC2CN(CC(F)(F)F)Cc3ccccc32)n(-c2ccccc2)[nH]c1=O` (stereo not drawn) [Example 30, 1-(4-methyl-5-oxo-2-phenyl-2,5-dihydro-1H-pyrazol-3-yl)-3-(2-(2,2,2-trifluoroethyl)-1,2,3,4-tetrahydroisoquinolin-4-yl)urea] was tested. Which IC50 did it give?
A: < 100 nM

Q: How did the IC50 turn out when `Cc1c(OC[C@H]2CN(C)CCO2)nn(-c2ccccc2)c1NC(=O)N[C@H]1c2ccccc2C(C)(C)C[C@@H]1O` [Example 75, 1-((1S,2S)-2-hydroxy-4,4-dimethyl-1,2,3,4-tetrahydronaphthalen-1-yl)-3-(4-methyl-3-(((R)-4-methylmorpholin-2-yl)methoxy)-1-phenyl-1H-pyrazol-5-yl)urea] was run?
A: < 100 nM

Q: For `Cc1c(OCC2CCN(C)CC2)nn(-c2ccccc2)c1NC(=O)N[C@@H]1c2ccccc2CC[C@H]1O` (relative stereo) [Example 123, 1-(trans-2-hydroxy-1,2,3,4-tetrahydronaphthalen-1-yl)-3-(4-methyl-3-((1-methylpiperidin-4-yl)methoxy)-1-phenyl-1H-pyrazol-5-yl)urea], which IC50 is on record?
A: < 100 nM

Q: `Cc1nn(-c2ccccc2)c(NC(=O)N[C@@H]2c3ccccc3CCC[C@H]2O)c1C` (relative stereo) [Example 126, 1-(3,4-dimethyl-1-phenyl-1H-pyrazol-5-yl)-3-(trans-6-hydroxy-6,7,8,9-tetrahydro-5H-benzo[7]annulen-5-yl)urea] was tested. Which IC50 did it give?
A: 100 to 1000 nM

Q: For `Cc1c(-c2cnn(C)c2)nn(-c2ccccc2)c1NC(=O)N[C@@H]1c2cc(F)c(F)cc2C2(CC2)[C@H]1O` (relative stereo) [Example 58, 1-(trans-5′,6′-difluoro-2′-hydroxy-2′,3′-dihydrospiro[cyclopropane-1,1′-inden]-3′-yl)-3-(1′,4-dimethyl-1-phenyl-1H,1′H-[3,4′-bipyrazol]-5-yl)urea], which IC50 is on record?
A: < 100 nM

Q: For `Cc1nn(-c2ccccc2)c(NC(=O)N[C@@H]2c3cc(CO)ccc3C(C)(C)C[C@H]2O)c1C` [Example 100], which IC50 is on record?
A: < 100 nM

Q: How did the IC50 turn out when `CO[C@H]1[C@@H](O)[C@H](NC(=O)Nc2c(C)c(-c3cnc(C)nc3)nn2-c2ccccc2)c2ccccc2C1(C)C` [Example 155, 1-((r-1,t-2,t-3)-2-hydroxy-3-methoxy-4,4-dimethyl-1,2,3,4-tetrahydronaphthalen-1-yl)-3-(4-methyl-3-(2-methylpyrimidin-5-yl)-1-phenyl-1H-pyrazol-5-yl)urea] was run?
A: < 100 nM

Q: Which IC50 does the source give for `Cc1c(OC[C@@H]2CN(C)CCO2)nn(-c2ccccc2)c1NC(=O)N[C@@H]1c2ccccc2C(C)(C)C[C@H]1O` [Example 76, 1-((1R,2R)-2-hydroxy-4,4-dimethyl-1,2,3,4-tetrahydronaphthalen-1-yl)-3-(4-methyl-3-(((S)-4-methylmorpholin-2-yl)methoxy)-1-phenyl-1H-pyrazol-5-yl)urea] here?
A: < 100 nM

Q: Which IC50 does the source give for `Cc1c(-c2cnn(C)c2)nn(-c2ccccc2)c1NC(=O)N[C@@H]1c2ccccc2C2(CCC2)[C@H]1O` (relative stereo) [Example 142, 1-(1′,4-dimethyl-1-phenyl-1H,1′H-[3,4′-bipyrazol]-5-yl)-3-(trans-2′-hydroxy-2′,3′-dihydrospiro[cyclobutane-1,1′-inden]-3′-yl)urea] here?
A: < 100 nM

Q: For `Cc1c(-c2cnn(C)c2)nn(-c2ccccc2)c1NC(=O)NC1CN(CC(F)(F)F)Cc2ccccc21` (stereo not drawn) [Example 25, 1-(1′,4-dimethyl-1-phenyl-1H,1′H-3,4′-bipyrazol-5-yl)-3-(2-(2,2,2-trifluoroethyl)-1,2,3,4-tetrahydroisoquinolin-4-yl)urea], which IC50 is on record?
A: < 100 nM

Q: `Cc1c(OC[C@H]2CN(C)CCO2)nn(-c2ccccc2)c1NC(=O)NC1c2cc(F)c(F)cc2C(C)(C)C[C@H]1O` (stereo partly drawn) [Example 77, 1-(trans-6,7-difluoro-2-hydroxy-4,4-dimethyl-1,2,3,4-tetrahydronaphthalen-1-yl)-3-(4-methyl-3-(((R)-4-methylmorpholin-2-yl)methoxy)-1-phenyl-1H-pyrazol-5-yl)urea] was tested. Which IC50 did it give?
A: < 100 nM

Q: How did the IC50 turn out when `Cc1c(-c2cnn(C)c2)nn(-c2ccccc2)c1NC(=O)N[C@@H]1c2cc(F)ccc2C2(CC2)[C@H]1O` (relative stereo) [Example 63, 1-(1′,4-dimethyl-1-phenyl-1H,1′H-[3,4′-bipyrazol]-5-yl)-3-(trans-5′-fluoro-2′-hydroxy-2′,3′-dihydrospiro[cyclopropane-1,1′-inden]-3′-yl)urea] was run?
A: < 100 nM

Q: `Cc1c(-c2cnn(C)c2)nn(-c2ccccc2)c1NC(=O)NC1CCCc2ccc(Br)cc21` (stereo not drawn) [Example 15, 1-(7-bromo-1,2,3,4-tetrahydronaphthalen-1-yl)-3-(1′,4-dimethyl-1-phenyl-1H,1′H-[3,4′-bipyrazol]-5-yl)urea] was tested. Which IC50 did it give?
A: < 100 nM

Q: Which IC50 does the source give for `COc1ncc(-c2nn(-c3ccccc3)c(NC(=O)N[C@@H]3c4ccccc4CC[C@H]3O)c2C)cn1` (relative stereo) [Example 119, 1-(trans-2-hydroxy-1,2,3,4-tetrahydronaphthalen-1-yl)-3-(3-(2-methoxypyrimidin-5-yl)-4-methyl-1-phenyl-1H-pyrazol-5-yl)urea] here?
A: < 100 nM

Q: For `Cc1c(-c2cnn(C)c2)nn(-c2ccccc2)c1NC(=O)NC1CCSc2ccc(Br)cc21` (stereo not drawn) [Example 112, 1-(6-bromothiochroman-4-yl)-3-(1′,4-dimethyl-1-phenyl-1H,1′H-[3,4′-bipyrazol]-5-yl)urea], which IC50 is on record?
A: < 100 nM

Q: Which IC50 does the source give for `Cc1c(-c2cnn(C)c2)nn(-c2ccccc2)c1NC(=O)N[C@@H]1c2ccccc2CC[C@H]1O` (relative stereo) [Example 101, 1-(1′,4-dimethyl-1-phenyl-1H,1′H-[3,4′-bipyrazol]-5-yl)-3-(trans-2-hydroxy-1,2,3,4-tetrahydronaphthalen-1-yl)urea] here?
A: < 100 nM

Q: How did the IC50 turn out when `CNC(=O)c1nn(-c2ccccc2)c(NC(=O)NC2CN(CC(F)(F)F)C(C)c3ccc(COC)cc32)c1C` (stereo not drawn) [Example 129, 5-(3-(6-(methoxymethyl)-1-methyl-2-(2,2,2-trifluoroethyl)-1,2,3,4-tetrahydroisoquinolin-4-yl)ureido)-N,4-dimethyl-1-phenyl-1H-pyrazole-3-carboxamide] was run?
A: < 100 nM

Q: With `CCOc1nn(-c2ccccc2)c(NC(=O)N[C@@H]2c3ccccc3C(C)(C)C[C@H]2O)c1C` [Example 146, 1-(3-ethoxy-4-methyl-1-phenyl-1H-pyrazol-5-yl)-3-((1R,2R)-2-hydroxy-4,4-dimethyl-1,2,3,4-tetrahydronaphthalen-1-yl)urea] as the molecule, how does the IC50 read?
A: < 100 nM

Q: With `Cc1c(-c2cnn(C)c2)nn(-c2ccccc2)c1NC(=O)N[C@@H]1c2ccccc2C[C@H]1O` [Example 65, 1-(1′,4-dimethyl-1-phenyl-1H,1′H-[3,4′-bipyrazol]-5-yl)-3-((1R,2R)-2-hydroxy-2,3-dihydro-1H-inden-1-yl)urea] as the molecule, how does the IC50 read?
A: < 100 nM

Q: For `Cc1ncc(-c2nn(-c3ccccc3)c(NC(=O)N[C@@H]3c4ccccc4C4(CC4)[C@H]3O)c2C)cn1` (relative stereo) [Example 56, 1-(trans-2′-hydroxy-2′,3′-dihydrospiro[cyclopropane-1,1′-inden]-3′-yl)-3-(4-methyl-3-(2-methylpyrimidin-5-yl)-1-phenyl-1H-pyrazol-5-yl)urea], which IC50 is on record?
A: < 100 nM

Q: Which IC50 does the source give for `Cc1c(-c2cnn(C)c2)nn(-c2ccccc2)c1NC(=O)N[C@H]1c2ccccc2C2(CC2)[C@@H]1O` (stereo in doubt) [Example 138, 1-(1′,4-dimethyl-1-phenyl-1H,1′H-[3,4′-bipyrazol]-5-yl)-3-((2′S,3′S)-2′-hydroxy-2′,3′-dihydrospiro[cyclopropane-1,1′-inden]-3′-yl)urea] here?
A: 100 to 1000 nM

Q: Which IC50 does the source give for `COCc1ccc2c(c1)C(NC(=O)Nc1c(C)c(-c3cnn(C)c3)nn1-c1ccccc1)CC1(CCC1)O2` (stereo not drawn) [Example 35A, 1-(1′,4-dimethyl-1-phenyl-1H,1′H-[3,4′-bipyrazol]-5-yl)-3-(6-(methoxymethyl)spiro[chroman-2,1′-cyclobutan]-4-yl)urea] here?
A: < 100 nM

Q: Which IC50 does the source give for `Cc1c(-c2cnn(C)c2)nn(-c2ccccc2)c1NC(=O)NC1CCC(=O)c2ccccc21` (stereo not drawn) [Example 36, 1-(1′,4-dimethyl-1-phenyl-1H,1′H-[3,4′-bipyrazol]-5-yl)-3-(4-oxo-1,2,3,4-tetrahydronaphthalen-1-yl)urea] here?
A: 100 to 1000 nM

Q: How did the IC50 turn out when `Cc1c(OCCO)nn(-c2ccccc2)c1NC(=O)N[C@@H]1c2ccccc2C(C)(C)C[C@H]1O` [Example 149, 1-((1R,2R)-2-hydroxy-4,4-dimethyl-1,2,3,4-tetrahydronaphthalen-1-yl)-3-(3-(2-hydroxyethoxy)-4-methyl-1-phenyl-1H-pyrazol-5-yl)urea] was run?
A: < 100 nM

Q: With `Cc1c(-c2cnn(C)c2)nn(-c2ccccc2)c1NC(=O)N[C@@H]1c2ccc(F)cc2C2(CC2)[C@H]1O` (relative stereo) [Example 64, 1-(1′,4-dimethyl-1-phenyl-1H,1′H-[3,4′-bipyrazol]-5-yl)-3-(trans-6′-fluoro-2′-hydroxy-2′,3′-dihydrospiro[cyclopropane-1,1′-inden]-3′-yl)urea] as the molecule, how does the IC50 read?
A: < 100 nM
